Several values for one entry are separate records, joined by “and”; a condition that tells them apart may be missing. Identical values can stand only once. Like-named read-outs stand apart in the source and are kept apart here.
Assay: Single dose pharmacokinetic study in mice (iv 4 mg/Kg, po 20 mg/Kg), plasma concentration post-dosing
Assay type: in vivo, mouse
Details: mouse
Description: This is advantageous leading to comparatively lower doses or less frequent administration. The procedure followed was: Male C57BL/6 mice were used at 7-9 weeks age with 3 animals per group. Mice were dosed with test compound using single intravenous bolus or oral gavage. Blood samples were taken via submandibular or saphenous vein for analysis of plasma concentrations of compound by LC-MS/MS at the following timepoints: IV (3 mice): 0.083, 0.25, 0.5, 1, 2, 4, 8 and 24 hours post dosing, PO (3 mice): 0.25, 0.5, 1, 2, 4, 8 and 24 hours post dosing. LC-MS/MS method for the quantitative determination of test compound in corresponding biological matrix was developed. […] The results are shown graphically in FIGS. 1A to 1C (MCC950) and FIGS. 2A to 2C (MCC7840).

[1] = IV 4 mg/Kg, individual mice M1-M3, 4 mg/kg
[2] = PO 20 mg/Kg, individual mice M4-M6, 20 mg/kg

CC(C)(O)c1coc(S(=O)(=O)NC(=O)Nc2c3c(cc4c2CCC4)CCC3)c1 [MCC_000950_016, N-((1,2,3,5,6,7-hexahydro-s-indacen-4-yl)carbamoyl)-4-(2-hydroxypropan-2-yl)furan-2-sulfonamide, reference compound]
AUC0-inf (male, C57BL/6, mouse, plasma, po, 20 mg/kg, PO 20 mg/Kg, mean of 3 mice, read-out: AUC0-inf, Mean PO): 126 µg·h/mL
AUC(0-t) (male, C57BL/6, mouse, plasma, po, 20 mg/kg, PO 20 mg/Kg, mean of 3 mice, read-out: AUC0-last, Mean PO): 125 µg·h/mL
Cmax (male, C57BL/6, mouse, plasma, po, 20 mg/kg, PO 20 mg/Kg, mean of 3 mice, read-out: Cmax, Mean PO): 35 µg/mL
MRT inf (male, C57BL/6, mouse, plasma, po, 20 mg/kg, PO 20 mg/Kg, mean of 3 mice, read-out: MRT0-inf, Mean PO): 3.63 h
MRT last (male, C57BL/6, mouse, plasma, po, 20 mg/kg, PO 20 mg/Kg, mean of 3 mice, read-out: MRT0-last, Mean PO): 3.6 h
half-life (male, C57BL/6, mouse, plasma, po, 20 mg/kg, PO 20 mg/Kg, mean of 3 mice, read-out: T1/2, Mean PO (converted)): 2.39 h
Tmax (male, C57BL/6, mouse, plasma, po, 20 mg/kg, PO 20 mg/Kg, mean of 3 mice, read-out: Tmax, Mean PO): 0.333 h
Plasma concentration, IV Time 5 min (IV 4 mg/Kg, 5 min post dosing, individual mice M1-M3, 4 mg/kg): 17.2 µg/mL and 17.7 µg/mL
Plasma concentration, IV Time 0.250 h (IV 4 mg/Kg, 0.250 h post dosing, individual mice M1-M3, 4 mg/kg): 10.2 µg/mL and 12.7 µg/mL
Plasma concentration, IV Time 0.500 h (IV 4 mg/Kg, 0.500 h post dosing, individual mice M1-M3, 4 mg/kg): 9.42 µg/mL and 10.5 µg/mL
Plasma concentration, IV Time 1.00 h (IV 4 mg/Kg, 1.00 h post dosing, individual mice M1-M3, 4 mg/kg): 7.73 µg/mL and 8.23 µg/mL
Plasma concentration, IV Time 2.00 h (IV 4 mg/Kg, 2.00 h post dosing, individual mice M1-M3, 4 mg/kg): 6 µg/mL and 5.01 µg/mL
Plasma concentration, IV Time 4.00 h (IV 4 mg/Kg, 4.00 h post dosing, individual mice M1-M3, 4 mg/kg): 2.39 µg/mL and 2.13 µg/mL
Plasma concentration, IV Time 8.00 h (IV 4 mg/Kg, 8.00 h post dosing, individual mice M1-M3, 4 mg/kg): 0.843 µg/mL and 0.48 µg/mL
Plasma concentration, IV Time 24.0 h (IV 4 mg/Kg, 24.0 h post dosing, individual mice M1-M3, 4 mg/kg): 0.00233 µg/mL
Tlast (IV 4 mg/Kg, individual mice M1-M3): 24.0 h
AUC0-inf [1]: 33.496 µg·h/mL and 30.758 µg·h/mL
AUC0-last [1]: 33.489 µg·h/mL and 30.751 µg·h/mL
AUCExtra [1]: 0.0226% and 0.0198% and 0.0224%
AUMCExtra [1]: 0.219% and 0.187% and 0.251%
C0 [1]: 22.332 µg/mL and 20.894 µg/mL
Cl [1]: 0.119 L/h/kg and 0.13 L/h/kg
MRT0-inf [1]: 2.84 h and 2.41 h
MRT0-last [1]: 2.83 h and 2.40 h
T1/2 [1]: 1.97 h and 2.05 h
Vdss [1]: 0.339 L/kg and 0.313 L/kg
AUCExtra, Mean IV (IV 4 mg/Kg, mean of 3 mice): 0.0216%
AUMCExtra, Mean IV (IV 4 mg/Kg, mean of 3 mice): 0.219%
C0, Mean IV (IV 4 mg/Kg, mean of 3 mice): 21.974 µg/mL
Tlast, Mean IV (IV 4 mg/Kg, mean of 3 mice): 24.0 h
bioavailability (PO 20 mg/Kg vs IV 4 mg/Kg, Mean PO): 71.0%
Plasma concentration, PO Time 0.250 h (PO 20 mg/Kg, 0.250 h post dosing, individual mice M4-M6, 20 mg/kg): 21.9 µg/mL and 29 µg/mL and 48.9 µg/mL
Plasma concentration, PO Time 0.500 h (PO 20 mg/Kg, 0.500 h post dosing, individual mice M4-M6, 20 mg/kg): 34.1 µg/mL and 35.8 µg/mL
Plasma concentration, PO Time 1.00 h (PO 20 mg/Kg, 1.00 h post dosing, individual mice M4-M6, 20 mg/kg): 33.7 µg/mL and 37 µg/mL
Plasma concentration, PO Time 2.00 h (PO 20 mg/Kg, 2.00 h post dosing, individual mice M4-M6, 20 mg/kg): 22.5 µg/mL and 26.2 µg/mL
Plasma concentration, PO Time 4.00 h (PO 20 mg/Kg, 4.00 h post dosing, individual mice M4-M6, 20 mg/kg): 13 µg/mL and 10.5 µg/mL
Plasma concentration, PO Time 8.00 h (PO 20 mg/Kg, 8.00 h post dosing, individual mice M4-M6, 20 mg/kg): 2.36 µg/mL and 4.67 µg/mL
Plasma concentration, PO Time 24.0 h (PO 20 mg/Kg, 24.0 h post dosing, individual mice M4-M6, 20 mg/kg): 0.0607 µg/mL and 0.0174 µg/mL and 0.0393 µg/mL
Tlast (PO 20 mg/Kg, individual mice M4-M6): 24.0 h
AUC0-inf [2]: 123.452 µg·h/mL and 144.868 µg·h/mL
AUC0-last [2]: 123.399 µg·h/mL and 144.734 µg·h/mL
AUCExtra [2]: 0.216% and 0.0429% and 0.0929%
AUMCExtra [2]: 1.40% and 0.376% and 0.730%
Cmax [2]: 21.9 µg/mL and 34.1 µg/mL and 48.9 µg/mL
MRT0-last [2]: 3.07 h and 3.47 h
T1/2 [2]: 2.11 h and 2.37 h
Tmax [2]: 0.500 h
AUCExtra, Mean PO (PO 20 mg/Kg, mean of 3 mice): 0.117%
AUMCExtra, Mean PO (PO 20 mg/Kg, mean of 3 mice): 0.835%
Tlast, Mean PO (PO 20 mg/Kg, mean of 3 mice): 24.0 h
